Assay results reported in patent US20120003191A1, “VALPROIC ACID, DERIVATIVES, ANALOGUES, AND COMPOSITIONS INCLUDING SAME AND METHODS FOR THEIR THERAPEUTIC USE” (priority 2009, published 2012).

Legend:
[1] = tested on: CD8 positive cytotoxic T-cells; assay: Quantification of CD8 positive cells in muscle; type: in vivo, mouse; settings: 240 mg/kg i.p. twice daily for 5 weeks, quadriceps
α7 integrin = assay: FDG based β-galactosidase fluorescent assay (reporter for α7 expression); type: cell-based, mouse; settings: 2 mM VPA, 48 hours, α7+/− myotubes from day two of differentiation
Procedure: The α7^+/− mice were derived as reported in Flintoff-Dye, et al. Role for the alpha7beta1 integrin in vascular development and integrity, Dev. Dyn. 234:11-21 (2005). These mice were engineered to contain the LacZ gene driven by the α7 integrin promoter. Skeletal muscles from the hind limbs (including gastrocnemius-soleus, quadriceps and tibialis anterior) of a 3-week old α7^+/− mouse were removed under sterile conditions, finely minced in Hank's balanced salt solution (HBSS) and incubated in 5 ml of enzyme solution I consisting of 1.5 U/ml collagenase D (0.15 U/mg powder, from Roche Diagnostics, Indianapolis, Ind.), 2.4 U/ml dispase II (neutral protease, grade II, 0.8 U/mg powder, from Roche Diagnostics) and 2.5 mM calcium chloride for 30 minutes at 37° C. with trituration every 5 minutes. The supernatant was decanted into 5 ml of 20% fetal bovine serum (FBS) (Biomeda Corporation, Foster City, Calif.) in HBSS. Enzyme solution II consisting of 0.6 mg/ml trypsin (stock solution 0.5%, from Invitrogen) in HBSS was added to the remaining muscle fragments, incubated for 30 minutes as above, and the cell suspensions were pooled. […] The fluorescence in each well was quantified using an Analyst plate reader (Molecular Devices, Sunnyvale, Calif.).

mdx/utrn−/− mice = assay: Quantification of Evan's blue dye uptake in quadriceps; type: in vivo, mouse; settings: 240 mg/kg i.p. twice daily for 5 weeks
Procedure: mdx/utrn−/− mice lack both dystrophin and utrophin, and were bred and genotyped as reported in Burkin, et al., Enhanced expression of the alpha 7 beta 1 integrin reduces muscular dystrophy and restores viability in dystrophic mice, J. Cell Biol. 152:1207-18 (2001). 240 mg/kg body weight of VPA was injected intraperitoneally twice daily into mdx/utrn^−/− mice (n=9) starting at 3 weeks of age, for a period of 5 weeks. Control mice were injected with saline (n=9). Body-weights were determined daily. On the 35th day of injection of VPA, mice were injected intraperitoneally with 100 mg/kg body weight of Evan's blue dye. After 24 hours, the quadriceps muscles were collected, frozen in liquid nitrogen-cooled isopentane and stored at −80° C. 8 μm cryosections of quadriceps were fixed in ice-cold methanol for 1 minute and washed in PBS three times for 5 minutes each. To delineate muscle fibers, the sections were incubated for 10 minutes at room temperature in FITC-conjugated wheat-germ agglutinin (WGA) (Invitrogen) diluted 1:500 in PBS. The sections were washed three times in PBS, 5 minutes each time, and the percentage of Evan's blue dye positive fibers in three sections taken 40 μm apart were counted (approximately 5000 fibers total) for each mouse.

[2] = humans; cited from earlier work

**Q.** For CCCC(CCC)C(=O)O [VPA, valproic acid], which “decrease of CD8 positive cytotoxic T-cell content” value [1] is on record?
**A.** Its value is “approximately 2.1 fold”.

**Q.** What about the “β-galactosidase activity (reporter for α7 expression), highest level” value (α7 integrin) of the same molecule?
**A.** The value was 1.4 fold.

**Q.** What about the “fewer damaged (Evans blue positive) fibers than saline” value (mdx/utrn−/− mice) of the same molecule?
**A.** Its value is “approximately 2 fold”.

**Q.** And the half life [2]?
**A.** The half life was “approximately 14 hours”.
